Source: ChEMBL document CHEMBL6109167, “Novel PARP7 Inhibitors for Treating Cancer” (ACS Med Chem Lett, 2025)

Target: T1, Protein mono-ADP-ribosyltransferase TIPARP (Homo sapiens, UniProt Q7Z3E1)
T1 sequence (Q7Z3E1 whole entry): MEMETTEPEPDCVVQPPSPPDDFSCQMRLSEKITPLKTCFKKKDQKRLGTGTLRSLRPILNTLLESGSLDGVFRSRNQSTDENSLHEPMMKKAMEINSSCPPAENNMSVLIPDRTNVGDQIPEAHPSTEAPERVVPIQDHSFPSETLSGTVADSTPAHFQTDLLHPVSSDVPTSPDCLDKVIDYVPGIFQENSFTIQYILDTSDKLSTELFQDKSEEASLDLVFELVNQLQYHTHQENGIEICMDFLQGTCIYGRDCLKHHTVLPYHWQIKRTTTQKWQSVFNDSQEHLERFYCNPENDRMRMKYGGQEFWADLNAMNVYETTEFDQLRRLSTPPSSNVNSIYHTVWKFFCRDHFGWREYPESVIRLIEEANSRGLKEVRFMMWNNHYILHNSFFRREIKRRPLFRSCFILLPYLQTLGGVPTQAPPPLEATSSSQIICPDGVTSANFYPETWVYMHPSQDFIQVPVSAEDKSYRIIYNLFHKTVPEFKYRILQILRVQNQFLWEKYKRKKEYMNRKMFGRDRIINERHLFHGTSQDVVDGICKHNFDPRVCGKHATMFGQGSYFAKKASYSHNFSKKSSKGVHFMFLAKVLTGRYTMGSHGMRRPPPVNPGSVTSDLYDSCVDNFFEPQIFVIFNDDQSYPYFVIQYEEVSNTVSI
Experiment: Inhibition of PARP7 in human NCI-H1373 cells assessed as increase in STAT1 phosphorylation at Tyr701 incubated for 48 hrs by LANCE Ultra sandwich assay
Type: cell-based

| SMILES | EC50 |
| --- | --- |
| C[C@@H](C[C@H](F)Cn1cc(F)c2cc(-c3ncc(C(F)F)c(N)n3)c(F)cc2c1=O)Oc1cn[nH]c(=O)c1C(F)(F)F | 0.42 nM |
| C[C@@H](C[C@H](F)Cn1ccc2cc(-c3ncc(C(F)F)c(N)n3)c(F)cc2c1=O)Oc1cn[nH]c(=O)c1C(F)(F)F | 0.786 nM |
| C[C@@H](C[C@@H](F)Cn1ccc2cc(-c3ncc(C(F)F)cn3)c(F)c(F)c2c1=O)Oc1cn[nH]c(=O)c1C(F)(F)F | 0.46 nM |
| COc1cnc(-c2cc3ccn(C[C@H](F)C[C@H](C)Oc4cn[nH]c(=O)c4C(F)(F)F)c(=O)c3c(F)c2F)nc1 | 0.375 nM |

Other lines, results leading:

| EC50 | SMILES |
| --- | --- |
| 0.62 nM | C[C@@H](C[C@@H](F)Cn1ccc2cc(-c3ncc(Cl)cn3)c(F)c(F)c2c1=O)Oc1cn[nH]c(=O)c1C(F)(F)F |
| 0.667 nM | C[C@@H](C[C@@H](F)Cn1ccc2cc(-c3ncc(C(C)(F)F)cn3)c(F)c(F)c2c1=O)Oc1cn[nH]c(=O)c1C(F)(F)F |
